Data from the NIST ThermoML archive (doi:10.1016/j.jct.2010.11.012).
± gives the expanded uncertainty stated by the source.

Test: xn = mol fraction of the nth substance listed
Details: Liquid, Bellows volumetry

CCCC [butane] + O=C=O
mass density [kg/m3]
Details | 280 K | 300 K | 320 K | 340 K | 360 K | 380 K | 400 K | 420 K | 440 K
3000 kPa, x2 = 0.2322 | 630.31 ± 1.7 | – | – | – | – | – | – | – | –
5000 kPa, x2 = 0.2322 | 633.96 ± 1.7 | – | 575.82 ± 2 | – | – | – | – | – | –
5000 kPa, x2 = 0.4794 | 680.75 ± 1.6 | 639.52 ± 2.6 | – | – | – | – | – | – | –
5000 kPa, x2 = 0.715 | 743.91 ± 3.4 | – | – | – | – | – | – | – | –
10000 kPa, x2 = 0.2322 | 642.11 ± 1.7 | – | 589.62 ± 2.1 | – | 527.83 ± 2.8 | – | 446.86 ± 3.4 | – | –
10000 kPa, x2 = 0.4794 | 692.87 ± 2.1 | 657.02 ± 2.6 | 616.31 ± 3 | 569.54 ± 3.6 | 511.93 ± 4.4 | – | – | – | –
10000 kPa, x2 = 0.715 | 764.37 ± 3.4 | – | 634.09 ± 5.2 | – | – | – | – | – | –
20000 kPa, x2 = 0.2322 | 656.07 ± 1.7 | – | 611.12 ± 1.9 | – | 561.64 ± 2.2 | – | 507.96 ± 3 | – | 450.53 ± 2.6
20000 kPa, x2 = 0.4794 | 712.84 ± 2.1 | 682.52 ± 2.3 | 650.15 ± 2.6 | 616.43 ± 3.1 | 580.87 ± 3.8 | 542.77 ± 3.1 | 502.33 ± 3.5 | – | –
20000 kPa, x2 = 0.715 | 794.78 ± 3 | – | 700.42 ± 4.6 | – | 589.3 ± 4.7 | – | – | – | –
30000 kPa, x2 = 0.2322 | 667.86 ± 1.6 | – | 627.12 ± 1.7 | – | 584.81 ± 1.9 | – | 540.33 ± 2.1 | – | 495.88 ± 2.4
30000 kPa, x2 = 0.4794 | 728.81 ± 2 | 701.65 ± 2 | 674.04 ± 2.2 | 645.49 ± 2.4 | 616.95 ± 2.6 | 587.13 ± 2.9 | 556.87 ± 3.2 | 526.92 ± 2.7 | 497.45 ± 2.8
30000 kPa, x2 = 0.715 | 817.62 ± 2.6 | – | 738.09 ± 3.2 | – | 653.81 ± 4.3 | – | 566.01 ± 4 | – | –
40000 kPa, x2 = 0.2322 | 678.47 ± 1.6 | – | 640.44 ± 1.6 | – | 602.48 ± 1.7 | – | 563.25 ± 1.8 | – | 525.21 ± 1.9
40000 kPa, x2 = 0.4794 | 742.52 ± 1.9 | 717.56 ± 1.9 | 692.66 ± 2 | 667.35 ± 2.1 | 642.35 ± 2.2 | 616.84 ± 2.3 | 591.24 ± 2.4 | 566.28 ± 2.6 | 541.84 ± 2.7
40000 kPa, x2 = 0.715 | 836.27 ± 2.4 | – | 765.65 ± 2.8 | – | 694.03 ± 3.2 | – | 621.7 ± 3.8 | – | 554.08 ± 3.3
50000 kPa, x2 = 0.2322 | 687.34 ± 1.6 | – | 652.04 ± 1.6 | – | 616.98 ± 1.6 | – | 581.4 ± 1.6 | – | 547.37 ± 1.7
50000 kPa, x2 = 0.4794 | 754.67 ± 1.8 | 731.07 ± 1.8 | 708.18 ± 1.9 | 685.08 ± 1.9 | 662.49 ± 2 | 639.71 ± 2 | 616.85 ± 2.1 | 595.02 ± 2.2 | 573.48 ± 2.2
50000 kPa, x2 = 0.715 | 852 ± 2.3 | – | 787.84 ± 2.5 | – | 724.09 ± 2.8 | – | 660.78 ± 3 | – | 601.28 ± 3.2
60000 kPa, x2 = 0.2322 | 695.74 ± 1.8 | – | 662.33 ± 1.9 | – | 629.59 ± 2 | – | 596.43 ± 2.1 | – | 565.31 ± 2.2
60000 kPa, x2 = 0.4794 | 764.81 ± 2.2 | 742.9 ± 2.2 | 721.35 ± 2.3 | 700 ± 2.4 | 679.22 ± 2.5 | 658.27 ± 2.6 | 637.36 ± 2.7 | 617.32 ± 2.8 | 597.98 ± 2.9
60000 kPa, x2 = 0.715 | 866.13 ± 2.9 | – | 806.49 ± 3.2 | – | 747.95 ± 3.6 | – | 690.23 ± 4 | – | 637.06 ± 4.3
70000 kPa, x2 = 0.2322 | 703.24 ± 1.8 | – | 671.53 ± 1.8 | – | 640.64 ± 1.9 | – | 609.35 ± 1.9 | – | 580.32 ± 2
70000 kPa, x2 = 0.4794 | 774.33 ± 2.1 | 753.65 ± 2.2 | 733.06 ± 2.2 | 713.41 ± 2.3 | 693.75 ± 2.4 | 674.23 ± 2.4 | 654.78 ± 2.5 | 635.97 ± 2.5 | 618.26 ± 2.6
70000 kPa, x2 = 0.715 | 878.47 ± 2.8 | – | 822.63 ± 3 | – | 768.11 ± 3.3 | – | 714.95 ± 3.6 | – | 665.83 ± 3.8
80000 kPa, x2 = 0.2322 | 710.1 ± 1.7 | – | 679.91 ± 1.8 | – | 650.47 ± 1.8 | – | 620.59 ± 1.8 | – | 593.42 ± 1.9
80000 kPa, x2 = 0.4794 | 783.23 ± 2.1 | 763.35 ± 2.1 | 744.07 ± 2.2 | 724.94 ± 2.2 | 706.48 ± 2.2 | 687.97 ± 2.3 | 669.8 ± 2.3 | 652.07 ± 2.4 | 635.67 ± 2.5
80000 kPa, x2 = 0.715 | 890.87 ± 2.7 | – | 836.62 ± 2.9 | – | 785.74 ± 3 | – | 735.73 ± 3.2 | – | 689.85 ± 3.4
90000 kPa, x2 = 0.2322 | 716.71 ± 1.7 | – | 687.47 ± 1.7 | – | 659.56 ± 1.8 | – | 631 ± 1.8 | – | 605.1 ± 1.8
90000 kPa, x2 = 0.4794 | 791.49 ± 2 | 772.13 ± 2 | 753.75 ± 2.1 | 735.81 ± 2.1 | 717.86 ± 2.1 | 700.34 ± 2.2 | 682.95 ± 2.2 | 666.23 ± 2.2 | 651.02 ± 2.3
90000 kPa, x2 = 0.715 | 901.14 ± 2.6 | – | 849.86 ± 2.7 | – | 801.06 ± 2.9 | – | 753.9 ± 3 | – | 710.59 ± 3.1
100000 kPa, x2 = 0.2322 | 723.23 ± 3.3 | – | 694.73 ± 3.2 | – | 667.72 ± 3.1 | – | 640.36 ± 3 | – | 615.81 ± 3
100000 kPa, x2 = 0.4794 | 798.9 ± 3.6 | 780.58 ± 3.7 | 762.74 ± 3.5 | 745.33 ± 3.5 | 728.39 ± 3.5 | 711.49 ± 3.5 | 695.05 ± 3.4 | 678.91 ± 3.4 | 664.29 ± 3.3
100000 kPa, x2 = 0.715 | 910.69 ± 4.4 | – | 861.47 ± 4.2 | – | 815.17 ± 4.2 | – | 770.02 ± 4 | – | 728.79 ± 4
120000 kPa, x2 = 0.2322 | 734.32 ± 3.3 | – | 707.88 ± 3.2 | – | 683.01 ± 3.2 | – | 657.01 ± 3.1 | – | 634.32 ± 3
120000 kPa, x2 = 0.4794 | 812.9 ± 3.8 | 795.54 ± 3.7 | 778.9 ± 3.6 | 762.5 ± 3.6 | 747.06 ± 3.5 | 731.12 ± 3.5 | 716.06 ± 3.5 | 701.1 ± 3.4 | 687.84 ± 3.4
120000 kPa, x2 = 0.715 | 928.62 ± 4.4 | – | 882.45 ± 4.3 | – | 839.59 ± 4.2 | – | 797.97 ± 4.1 | – | 759.95 ± 4
140000 kPa, x2 = 0.2322 | 744.8 ± 3.4 | – | 719.63 ± 3.3 | – | 695.82 ± 3.2 | – | 671.62 ± 3.1 | – | 650.31 ± 3
140000 kPa, x2 = 0.4794 | 825.4 ± 3.8 | 809.12 ± 3.7 | 793 ± 3.7 | 777.74 ± 3.6 | 763.38 ± 3.6 | 748.2 ± 3.5 | 734.23 ± 3.5 | 719.99 ± 3.4 | 707.66 ± 3.4
140000 kPa, x2 = 0.715 | 944.48 ± 4.4 | – | 900.69 ± 4.3 | – | 861.07 ± 4.2 | – | 821.54 ± 4.1 | – | 786.09 ± 4
160000 kPa, x2 = 0.2322 | 754.11 ± 3.6 | – | 730.08 ± 3.5 | – | 707.43 ± 3.5 | – | 684.45 ± 3.5 | – | 664.25 ± 3.4
160000 kPa, x2 = 0.4794 | 836.77 ± 4.1 | 820.91 ± 4.1 | 805.87 ± 4.1 | 791.24 ± 4 | 777.86 ± 4 | 763.43 ± 4 | 749.98 ± 4 | 736.74 ± 4 | 724.96 ± 4
160000 kPa, x2 = 0.715 | 958.48 ± 5 | – | 917.22 ± 5 | – | 878.95 ± 4.9 | – | 841.99 ± 4.9 | – | 808.63 ± 4.9
180000 kPa, x2 = 0.2322 | 762.53 ± 3.6 | – | 739.97 ± 3.5 | – | 718.38 ± 3.5 | – | 696.37 ± 3.4 | – | 676.7 ± 3.4
180000 kPa, x2 = 0.4794 | 847.4 ± 4.1 | 832.12 ± 4.1 | 817.41 ± 4 | 803.57 ± 4 | 790.57 ± 4 | 776.93 ± 4 | 764.27 ± 4 | 751.63 ± 3.9 | 740.16 ± 3.9
180000 kPa, x2 = 0.715 | 971.36 ± 4.9 | – | 931.83 ± 4.9 | – | 895.71 ± 4.9 | – | 860.22 ± 4.8 | – | 828.38 ± 4.8
200000 kPa, x2 = 0.2322 | 770.7 ± 3.6 | – | 748.41 ± 3.6 | – | 727.81 ± 3.5 | – | 706.63 ± 3.5 | – | 688.15 ± 3.4
200000 kPa, x2 = 0.4794 | 856.48 ± 5.7 | 842.22 ± 4.1 | 828.26 ± 4.9 | 815.1 ± 4.1 | 802.28 ± 4.7 | 789.44 ± 4 | 777.01 ± 4.6 | 764.81 ± 4 | 754.38 ± 4.9
200000 kPa, x2 = 0.715 | 983.53 ± 5 | – | 945.52 ± 5 | – | 910.63 ± 4.9 | – | 876.67 ± 5 | – | 846.42 ± 4.8
